The subject of series [1] is Rbp1−/− and Rxrγ−/− mice. Put plainly: Y-maze spontaneous alternation. The conditions noted are these: 5-6 hours prior to testing. In kind it is in vivo, mouse. Here is the method:
The Y-maze apparatus and the procedure were as previously described (Wietrzych et al., 2005). Briefly, each mouse was placed at the end of one arm and allowed to explore freely the apparatus for 5 min, with the experimenter out of the animal's sight. Spontaneous alternation performance (SAP) was assessed visually by scoring the pattern of entries into each arm and expressed as a percentage of total number of entries, discounting the first two visits. Total entries were scored as an index of ambulatory activity in the Y-maze, but none of tested mice had to be excluded due to low locomotor performance (score below 9 entries).
(§1) Vehicle treatments consisted of 3% ethanol and 3% DMSO solution in sunflower oil. Treatments were administered by intraperitoneal injections at volume/weight ratio 3 ml/kg between 8-10 am and 5-6 h before the test as previously validated (Wietrzych-Schindler M, 2011).

The subject of series [2] is Rbp1−/−, Rxrγ−/− and WT mice. Put plainly: Forced swim test after acute treatment. In kind it is in vivo, mouse. The conditions noted are these: Rbp1−/− mice, acute i.p. treatment 5-6 h before the test. Here is the method:
(§2) The forced swim paradigm was carried out between 1 pm and 4 pm in a 3-litre glass beaker half-filled with water at 22-23° C. (the water depth was 17 cm). All mice were tested only once in this task. To this end, each mouse was lowered gently into the water and the time of immobility was scored during a 6-minute testing period. The mouse was judged immobile when it floated in an upright position and made only small movements to keep its head above the water. After 6 min, the mouse was taken out of the water, left to dry under a red light lamp and returned to its home cage. The immobility scores of each animal were used as an index of despair behavior.
as §1
as §2, with “paradigm (Dalvi and Lucki, 1999)” for “paradigm”, “2-litre” for “3-litre”

Series [3] concerns differentiating monocyte-derived human dendritic cells. Put plainly: DNA microarray in differentiating monocyte-derived dendritic cells. In kind it is cell-based. The conditions noted are these: for expression of genes that are direct targets of RXR permissive heterodimers (LXR-RXR, PPAR-RXR) and RAR-RXR: 9CDHRA 10 μM, 9CRA 1 μM, GW3965 1 μM, RSG 1 μM, GW1516 1 μM, AM580 100 nM. The procedure:
The generation and transcriptional analysis of differentiating DCs were performed as described previously [Szeles L et al. 2010]. Microarray data were deposited into the Gene Expression Omnibus database under accession no. GSE48573.
The generation and analysis of differentiating DCs were performed as described previously [Szeles L et al. 2010] with minor modifications. Briefly, human monocytes were isolated from healthy volunteer's buffy coat, obtained with a Regional Ethical Board permit from the Regional Blood Bank and isolated by Ficoll gradient centrifugation followed by immunomagnetic cell separation, and were cultured in the presence of GM-CSF and IL-4. Differentiating DCs were stimulated 18 h after […] by various agonists for 12 h. The ligands were used in the following concentrations: 10 μM (R)-9CDHRA, 10 μM (S)-9CDHRA, 1 μM 9cisRA, 100 nM LG100268, 1 μM GW3965, 1 μM Rosiglitazone (RSG), 1 μM GW1516, 100 nM AM580. Experiments were performed in biological triplicates. Samples were processed and hybridized to Human Genome U133 Plus 2.0 Arrays. Data were analysed using to GeneSpring 12.6.1 software. In detail, normalization was performed using RMA summarization algorithm. […] Microarray data were deposited into the Gene Expression Omnibus database under accession no. GSE48573.

In series [4] the test system is human oligodendrocytes cell cultures. Put plainly: Metabolic conversion in human oligodendrocytes cell culture (HPLC-MS). Type of series: in vitro ADME. To be noted: 10^−6M; for 9CDHRA levels in cells after treatment (metabolism / accumulation): n=3. The procedure:
(§3) In a slight variant of the method, after reaching confluency of 80% cells were treated with 9CDHROL, 9CDH-retinyl ester (acetate, 9CDHROL-ES), 9CDHRA, 9CDH-retinoyl ester, (ethyl ester, 9CDHRA-ES), ATROL, 9CDHBC, 9CBC and ATBC at a concentration of 10^−6 M or ethanol at corresponding concentration was used as control vehicle treatment. Cells were harvested 18 hours later, centrifuged, weighted, frozen in liquid nitrogen and stored at −80° C. until analyses.
(§4) High performance liquid chromatography mass spectrometry (LC-MS) was carried out as described in Example 4.
9CDHRA levels including standard deviation in human oligodendrocytes cultures were assessed using HPLC-MS analysis after control treatment using ethanol (CTRL), as well as ATROL treatment (ATROL), 9CBC treatments (9CBC), ATBC treatments (ATBC), 9CDHBC treatment (9CDHBC), 9CDHROL treatments (9CDHROL), 9CDHROL-ester treatments (9CDHROL-ES), 9CDHRA treatments (9CDHRA) or 9CDHRA-ester treatments (9CDHRA-ES), each with 10^−6M concentration and n=3 (FIG. 14D).

Series [5] deals with oligodendrocytes cell line 158N. Put plainly: Metabolic conversion in mouse oligodendrocytes cell culture (LC-MS). Type of series: in vitro ADME. To be noted: for 9CDHRA levels in cells after treatment: 10^−5M for 18 h; for 9CDHROL levels in cells after treatment: 10^−6 M, 18 hours; for conversion to 9CDHRA: data not shown; for 9CBC in cells after treatment: 411 nm detection, retention time 26.1 min; for 9CDHBC peak in cells after treatment: UV detection at 366 nm, retention time 25.1 min. The procedure: Normal immortalized oligodendrocytes cell line 158N was cultured as previously reported (Feutz et al., 2001). Expediently, cells were cultured in supplemented with 5% calf serum (Invitrogen, France). When cells attained 70% of confluency they were treated with 10^−2 M ethanol solution of one of the following compounds: 9CDHROL, 9CDHROL-acetate, 9CDHRA-ethyl ester. 9CDHRA and ethanol as controls, vehicle treatment. 18 h after treatment cells were collected in amber Eppendorf tubes and stored at −80° C. until analyses. Treatments and cell collection were carried out in light limited conditions to avoid photolysis of retinoids.
as §3, §4

The mark [6] stands for this setting: Rbp1−/− mice, ATRA 5 mg/kg, UVI2108 1 mg/kg, MA 5 mg/kg, DHA 1 mg/kg, TTNPB 5 mg/kg.

Entries after “also recorded” stand apart in the source; their conditions may differ.

For `C/C(=C\c1ccc(C(=O)O)cc1)c1ccc2c(c1)C(C)(C)CCC2(C)C` [TTNPB], the “working memory in spontaneous alternation in the Y-maze” value in series [1] (setting [6]) is “not”. Besides, the “immobility (despair) in the forced swim test” value in series [2] is given as “did not display such effects”.

As for `CC1=C(/C=C/C(C)=C\C=C\C(C)=C\C(=O)O)C(C)(C)CCC1` [9CRA, 9-cis-retinoic acid, reference compound], the “expression of genes induced by AM580 (RAR-RXR target genes)” value in series [3] is listed as “also induced”. Besides, the “number of transcripts regulated” value in series [3] (10 μM (R)-9CDHRA, 1 μM 9CRA, 12 h, FC>2) amounted to 450. In series [3] (LG268 100 nM), the “expression of genes that are direct targets of RXR permissive heterodimers (LXR-RXR, PPAR-RXR) and RAR-RXR” value (“expression … (LXR-RXR, PPAR-RXR) and RAR-RXR” below) is given as “induce the expression of many genes”.

As to `CC(=O)OCC[C@@H](C)/C=C/C=C(C)\C=C\C1=C(C)CCCC1(C)C` (stereo in doubt) [9CDHROL-ES, (R)-9-cis-13,14-dihydroretinyl acetate], the “production of 9CDHRA by the ester form compared with 9CDHROL and 9CDHRA, respectively” value in series [4] was “higher production”. Besides, in series [5], the “9CDHRA levels in cells after treatment” value is given as “strong increase”, the “9CDHROL levels in cells after treatment” value was “excellent/strongly” and the “conversion to 9CDHRA” value is “excellent precursor”.

Take `O=C(O)Cc1cccc(OCCCN(Cc2cccc(C(F)(F)F)c2Cl)CC(c2ccccc2)c2ccccc2)c1` [GW3965, reference compound]: in series [3] (LG268 100 nM), the “expression … (LXR-RXR, PPAR-RXR) and RAR-RXR” value is recorded as “also induced”.

As to `Cc1cc2c(cc1C1(c3ccc(C(=O)O)cn3)CC1)C(C)(C)CCC2(C)C` [LG268, reference compound], in series [3] (LG268 100 nM), the “expression … (LXR-RXR, PPAR-RXR) and RAR-RXR” value is reported as “induce the expression of many genes”; the “transcripts of the set common to (R)-9CDHRA and 9CRA also regulated by LG268” value was determined as 61.

In the case of `COC(C)(C)CCCC(C)C/C=C/C(C)=C/C(=O)O` (stereo not shown) [methoprene acid], the “working memory in spontaneous alternation in the Y-maze” value was “pro-mnemonic effects” in series [1] (setting [6]); “normalised” in series [1] (Rbp1−/− mice, ATRA 5 mg/kg, UVI2108 1 mg/kg, MA 5 mg/kg, DHA 1 mg/kg, TTNPB 5 mg/kg, listed as MA); “not” in series [1] (Rxrγ−/− mice, same doses). The “immobility (despair) in the forced swim test” value in series [2] is recorded as “normalized increased despair”; in series [2] (listed as MA), “normalised”.

With `CC1(C)CCC(C)(C)c2cc(C(=O)Nc3ccc(C(=O)O)cc3)ccc21` [AM580, reference compound], the “expression … (LXR-RXR, PPAR-RXR) and RAR-RXR” value in series [3] (LG268 100 nM) is “also induced”.

Regarding `CC1=C(/C=C/C(C)=C/C=C/C(C)=C/C=C/C=C(C)/C=C/C=C(C)/C=C/C2=C(C)CCCC2(C)C)C(C)(C)CCC1` [ATBC, all-trans-β,β-carotene, reference compound], the “9CDHRA levels in cells after treatment (metabolism / accumulation)” value (from here on “9CDHRA levels … (metabolism / accumulation)”) in series [4] was “not converted to 9CDHRA”. In addition, in series [5], the “9CDHROL levels in cells after treatment” value is “did not display any increase; also recorded: did not result in any increase”, the “9CBC in cells after treatment” value is reported as “no 9CBC could be detected”, the “9CDHBC peak in cells after treatment” value is recorded as “not be conclusively detected” and the “conversion to 9CDHRA” value was “not converted to 9CDHRA”. In series [5] (detectable at 411 nm, eluting at 27.2 min), the “ATBC level in cells after ATBC-treatment” value is given as “present in very high levels”.

For `CCOC(=O)C[C@@H](C)/C=C/C=C(C)\C=C\C1=C(C)CCCC1(C)C` [9CDHRA-ES, Ethyl (9Z,13R)-13,14-Dihydroretinoate], in series [4], the “production of 9CDHRA by the ester form compared with 9CDHROL and 9CDHRA, respectively” value is reported as “higher production”; the “9CDHRA levels … (metabolism / accumulation)” value was “strong accumulation”. Also, the “9CDHRA levels in cells after treatment” value in series [5] is recorded as “very strong increase”.

For the compound `CC1=C(/C=C/C(C)=C\C=C\C(C)=C\C=C\C=C(C)\C=C\C=C(C)\C=C\C2=C(C)CCCC2(C)C)C(C)(C)CCC1` [9CBC, 9-cis-β,β-Carotene], in series [4], the “9CDHRA levels … (metabolism / accumulation)” value was “not converted to 9CDHRA”. The “ATROL levels in cells after treatment” value in series [5] (10^−6M) was “a low conversion or induced increase”. In series [5], the “9CDHROL levels in cells after treatment” value is “no or just a weak increase; also recorded: weak significant increase”, the “9CBC in cells after treatment” value is given as “could detect 9CBC”, the “9CDHBC peak in cells after treatment” value is recorded as “higher peak was observed” and the “conversion to 9CDHRA” value is reported as “not converted to 9CDHRA”.

Consider `Cc1cc(SCc2sc(-c3ccc(C(F)(F)F)cc3)nc2C)ccc1OCC(=O)O` [GW1516, reference compound], for which, in series [3] (LG268 100 nM), the “expression … (LXR-RXR, PPAR-RXR) and RAR-RXR” value was “also induced”.
